Activity calls are given as the source filed them.
Assays:
[1] = tested on: P388/ADR; assay: cells; assay type: functional; details: Mus musculus
[2] = tested on: SN12K1; assay: cells; assay type: functional; details: Homo sapiens
[3] = tested on: P388; assay: cells; assay type: functional; details: Mus musculus
[4] = inhibitors of intracellular T. cruzi replication, confirmation, NIH3T3 host cells, beta-gal luminescence (AID 2044); assay type: functional, cell-based;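 note: intracellular parasites grown in NIH/3T3 mouse fibroblasts as host cells; luminescent beta-galactosidase reporter signal from transgenic T. cruzi replicating inside host cells; inhibitors lower the luminescence signal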
[5] = cytotoxicity toward NIH3T3 fibroblasts, dose response, counter-screen, cell-based, ATP luminescence, mouse fibroblasts (AID 2010); assay type: functional;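 note: cells exposed to compound for about 90 hours before reading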
[6] = Shn3 3'UTR reporter inhibitors, dose response, cell-based, Clone20 osteoblasts, firefly luciferase, cherry-picked (AID 624132); assay type: functional;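 note: firefly luciferase luminescence from reporter carrying the Shn3 3'UTR in osteoblasts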
[7] = HepG2 cell cytotoxicity, dose response, cytotoxicity control for Shn3 inhibitor project, CellTiter-Glo, cherry-picked (AID 624134); assay type: functional, cell-based
[8] = control 3'UTR Renilla luciferase suppression, dose response, counter-screen for Shn3 inhibitor project, cell-based, Clone20-Shn3RL, cherry-picked (AID 624133); assay type: functional
[9] = molecular target: T1, Heat shock factor protein 1 (Mus musculus, UniProt P38532); assay: inhibition of MG132-induced HSE-luciferase signal, confirmation, cell-based, NIH3T3, luminescence, dose retest (AID 2382); assay type: functional;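 note: NIH3T3 fibroblasts with HSF1-driven luciferase reporter stressed by proteasome inhibitor MG132; luminescence from HSF1-driven luciferase expression after 8 hours of MG132 stress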
T1 sequence (P38532 whole entry): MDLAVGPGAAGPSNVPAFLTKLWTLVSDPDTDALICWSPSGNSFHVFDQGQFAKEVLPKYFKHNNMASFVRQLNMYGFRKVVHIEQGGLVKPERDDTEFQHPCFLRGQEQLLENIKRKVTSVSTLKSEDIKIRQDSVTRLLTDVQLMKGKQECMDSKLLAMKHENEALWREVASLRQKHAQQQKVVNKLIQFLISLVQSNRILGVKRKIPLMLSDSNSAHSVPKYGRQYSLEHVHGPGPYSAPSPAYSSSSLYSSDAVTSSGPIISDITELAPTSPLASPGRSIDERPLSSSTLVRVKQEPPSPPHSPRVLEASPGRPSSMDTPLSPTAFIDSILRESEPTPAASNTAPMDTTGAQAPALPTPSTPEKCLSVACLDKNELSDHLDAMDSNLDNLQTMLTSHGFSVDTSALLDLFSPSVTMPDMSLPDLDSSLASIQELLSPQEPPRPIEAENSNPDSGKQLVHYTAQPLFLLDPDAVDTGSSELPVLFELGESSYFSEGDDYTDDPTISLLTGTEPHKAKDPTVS

[10] = molecular target: FAD-linked sulfhydryl oxidase ALR (Homo sapiens, UniProt P55789); assay: inhibitors of human ALR sulfhydryl oxidase, dose response, biochemical, H2O2 detection, luminescence, cherry-pick (AID 493248)
[11] = tested on: Streptococcus sp. 'group A'; assay: growth inhibition of control SK(-) GAS strain, dose response, counter-screen for streptokinase expression inhibitor project, luminescence, kanamycin, BacTiterGlo, confirmation (AID 1900); assay type: functional, organism-based
[12] = tested on: Streptococcus; assay: Group A Streptococcus viability loss, dose response, counter-screen for streptokinase expression inhibitor project, luminescence, BacTiterGlo (AID 1915); assay type: functional, organism-based;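 note: potency for reduction of bacterial viability or growth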
[13] = tested on: INS1; assay: beta cell apoptosis inhibitors, cytokine rescue, dose response, luminescence, retest (AID 449756); assay type: functional, cell-based; details: Rattus norvegicus;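 note: cell death triggered by IL-1 beta plus TNF-alpha plus IFN-gamma mixture; protective hits raise ATP signal compared with cytokine alone wells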
[14] = microbe, parasite or virus in culture; assay type: functional; details: Mycobacterium tuberculosis
[15] = molecular target: T2, Calpain-2 catalytic subunit (Sus scrofa, UniProt P43367); assay: pig calpain II inhibitor potency, dose response, biochemical, fluorogenic peptide substrate (AID 1420); assay type: functional
T2 sequence (P43367 whole entry): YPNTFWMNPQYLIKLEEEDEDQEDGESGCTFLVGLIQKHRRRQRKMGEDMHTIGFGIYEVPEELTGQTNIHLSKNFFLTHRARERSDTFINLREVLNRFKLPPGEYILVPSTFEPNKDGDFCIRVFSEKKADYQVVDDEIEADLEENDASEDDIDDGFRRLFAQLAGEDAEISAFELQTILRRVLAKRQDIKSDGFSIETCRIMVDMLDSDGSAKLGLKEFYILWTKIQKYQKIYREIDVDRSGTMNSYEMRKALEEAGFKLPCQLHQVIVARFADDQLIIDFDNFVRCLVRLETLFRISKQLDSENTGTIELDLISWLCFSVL

[16] = molecular target: T3, High affinity choline transporter 1 (Homo sapiens, UniProt Q9GZV3); assay: CHT inhibitors, dose response, cell-based, 5-point CRC, membrane potential dye (AID 504840); assay type: functional
T3 sequence (Q9GZV3 whole entry): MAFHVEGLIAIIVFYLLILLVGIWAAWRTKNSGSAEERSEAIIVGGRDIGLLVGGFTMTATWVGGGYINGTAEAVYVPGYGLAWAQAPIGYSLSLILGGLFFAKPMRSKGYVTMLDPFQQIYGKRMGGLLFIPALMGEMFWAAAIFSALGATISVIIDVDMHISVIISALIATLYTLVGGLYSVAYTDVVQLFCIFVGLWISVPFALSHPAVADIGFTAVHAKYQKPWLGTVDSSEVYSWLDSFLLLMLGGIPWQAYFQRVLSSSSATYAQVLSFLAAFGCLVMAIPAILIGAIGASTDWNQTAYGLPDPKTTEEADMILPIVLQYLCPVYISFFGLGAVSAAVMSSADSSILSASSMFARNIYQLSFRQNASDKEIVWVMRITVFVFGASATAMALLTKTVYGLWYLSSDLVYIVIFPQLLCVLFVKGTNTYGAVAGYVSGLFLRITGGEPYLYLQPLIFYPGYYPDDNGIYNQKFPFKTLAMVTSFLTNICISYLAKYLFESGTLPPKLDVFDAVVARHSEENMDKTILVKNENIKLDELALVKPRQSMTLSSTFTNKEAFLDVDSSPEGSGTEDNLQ

[17] = growth suppression of PTEN-null colon cells, dose response, cell-based, HCT116 PTEN knockout (AID 1047); assay type: functional;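 note: HCT116 colon tumor cells with PTEN knocked out; cells exposed to compound for 60 hours before readout; potency for loss of cell viability measured by luminescence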
[18] = growth suppression of beta-catenin-knockout colon cells, dose response, cell-based, HCT116, human colon tumor (AID 1045); assay type: functional;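 note: HCT116 colon tumor cells with beta catenin knocked out; cells exposed to compound for 60 hours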
[19] = molecular target: Cytochrome P450 2D6 (Homo sapiens, UniProt P10635);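 note: CYP2D6 member of a cytochrome P450 panel assay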
[20] = molecular target: T4, Cytochrome P450 1A2 (Homo sapiens, UniProt P05177);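 note: PubChem cytochrome P450 panel assay, CYP1A2 panel member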
T4 sequence (P05177 whole entry): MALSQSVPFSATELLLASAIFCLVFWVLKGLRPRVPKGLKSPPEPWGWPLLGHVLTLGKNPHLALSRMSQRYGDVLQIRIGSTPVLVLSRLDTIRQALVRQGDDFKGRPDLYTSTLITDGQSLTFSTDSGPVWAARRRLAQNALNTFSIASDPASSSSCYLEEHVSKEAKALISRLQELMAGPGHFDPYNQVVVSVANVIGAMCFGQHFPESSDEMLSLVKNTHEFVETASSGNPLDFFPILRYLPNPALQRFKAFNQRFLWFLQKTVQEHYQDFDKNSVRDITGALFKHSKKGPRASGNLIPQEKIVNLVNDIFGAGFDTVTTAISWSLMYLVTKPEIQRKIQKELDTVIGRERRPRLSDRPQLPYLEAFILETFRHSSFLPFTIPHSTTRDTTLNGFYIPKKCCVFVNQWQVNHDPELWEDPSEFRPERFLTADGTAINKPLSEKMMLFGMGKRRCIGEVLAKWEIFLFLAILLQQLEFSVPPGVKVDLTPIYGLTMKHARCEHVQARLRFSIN

[21] = inhibitors of HIV Env-driven cell fusion, dose response, cherry-pick (AID 652057); assay type: functional, cell-based
[22] = inhibitors of clade B AD8 Env fusion, dose response, cell-based, cherry-pick (AID 652062); assay type: functional;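 note: luciferase signal from cell-cell fusion driven by HIV-1 clade B AD8 Env; potency is for inhibitors of fusion seen as a drop in luminescence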

FAD-linked sulfhydryl oxidase ALR, sequence (P55789 whole entry): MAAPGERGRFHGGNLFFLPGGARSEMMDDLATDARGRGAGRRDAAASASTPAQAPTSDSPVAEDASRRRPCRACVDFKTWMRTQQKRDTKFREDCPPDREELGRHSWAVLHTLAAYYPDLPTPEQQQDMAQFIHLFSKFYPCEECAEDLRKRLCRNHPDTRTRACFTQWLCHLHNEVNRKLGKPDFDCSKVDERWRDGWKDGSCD
Cytochrome P450 2D6, sequence (P10635 whole entry): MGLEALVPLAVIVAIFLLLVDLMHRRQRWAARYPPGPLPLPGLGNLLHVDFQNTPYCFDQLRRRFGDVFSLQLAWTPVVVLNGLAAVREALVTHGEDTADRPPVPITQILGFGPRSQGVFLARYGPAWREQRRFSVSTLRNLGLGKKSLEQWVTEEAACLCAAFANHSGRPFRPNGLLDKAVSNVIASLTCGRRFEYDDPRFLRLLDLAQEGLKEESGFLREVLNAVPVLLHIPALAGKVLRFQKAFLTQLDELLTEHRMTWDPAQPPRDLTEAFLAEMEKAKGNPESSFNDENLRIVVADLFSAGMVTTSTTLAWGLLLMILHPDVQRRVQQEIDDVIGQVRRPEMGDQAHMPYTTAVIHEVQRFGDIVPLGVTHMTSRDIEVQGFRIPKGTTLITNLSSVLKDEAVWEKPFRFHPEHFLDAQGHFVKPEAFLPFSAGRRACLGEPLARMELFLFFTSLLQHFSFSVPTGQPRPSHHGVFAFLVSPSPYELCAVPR

C[C@H](CN1CC(=O)NC(=O)C1)N1CC(=O)NC(=O)C1
GI50 [1]: 13.9 µM (inactive)
GI50 [2]: 36.8 µM (inactive)
GI50 [3]: 0.319 µM (active)

CCn1c(N2CCN(S(=O)(=O)c3ccc(Cl)cc3)CC2)nc2ccccc21
EC50 [4]: 1.55 µM (active)
EC50 [5]: > 60 µM (not active)
AC50 [6]: 9.14 µM (active)
AC50 [7]: 58.3 µM (active)
AC50 [8]: 9.17 µM (active)

CNC(SCc1cc2c(cc1Cl)OCO2)=C1C(=O)N(C)C(=O)N(C)C1=O
EC50 [9]: > 195 µM (not active)
AC50 [10]: 1.56 µM (active)

COc1ccc(C(NC(C)=O)c2cc(Cl)c3cccnc3c2O)cc1OC (stereo unspecified)
EC50 [11]: 3.99 µM (active)
EC50 [4]: 0.941 µM (active)
EC50 [5]: 1.01 µM (active)
EC50 [12]: 3.67 µM (active)
AC50 [13]: 2.3 µM (active)
AC50 [6]: 3.45 µM (active)
AC50 [7]: 3.12 µM (active)
AC50 [8]: 2.98 µM (active)

c1ccc(-c2nc3nonc3nc2-c2ccccc2)cc1
CC50 [14]: 17.8 µM (active)
AC50 [13]: 1.15 µM (active)

Cc1c(C(=O)c2ccc(N(C)C)cc2)c2ccccn2c1CCC#N
IC50 [15]: > 50 µM (not active)
AC50 [10]: 2.73 µM (active)

COC(=O)c1cccc(NC(=O)c2ccc(S(=O)(=O)N3CCN(C)CC3)cc2)c1
IC50 [16]: 14.5 µM (active)

Cc1ccccc1N(C)S(=O)(=O)c1ccc2ncc(C(=O)NCC3CCCO3)c(O)c2c1 (stereo unspecified)
IC50 [16]: 12 µM (active)

CCOc1ccc(NCc2nnc(SCC(=O)Nc3nc(-c4ccccc4)cs3)n2-c2ccccc2)cc1
EC50 [17]: 3.65 µM (active)
EC50 [18]: 3.28 µM (active)

Cc1ccc(C)c(Oc2cc(NC(=O)CCCn3nc(C)c([N+](=O)[O-])c3C)cc([N+](=O)[O-])c2)c1
EC50 [17]: 21.1 µM (active)
EC50 [18]: 18.9 µM (active)

Cc1nn(Cc2ccccc2Cl)c(C)c1NC(=O)c1noc2c1CCCCC2
IC50 [16]: 13.8 µM (active)

COc1cc2c(cc1OC)CN(c1nc(CN3CCOCC3)nc3sc4c(c13)CCC(C)C4)CC2 (stereo unspecified)
EC50 [17]: 9.18 µM (active)
EC50 [18]: 9.91 µM (active)

COC(=O)c1ccc2c(c1)C(=O)/C(=C/c1ccc(C)cc1)O2
EC50 [17]: 16.8 µM (active)
EC50 [18]: 17.2 µM (active)

CCOC(=O)c1ccc(NC(=NS(=O)(=O)c2ccccc2C)c2ccccc2)cc1
EC50 [17]: 36.4 µM (active)
EC50 [18]: 56.2 µM (active)
AC50 [19]: 17.8 µM (inconclusive)
AC50 [20]: 25.1 µM (inconclusive)

CN1CCCN(c2ncnc3scc(-c4ccc(F)cc4)c23)CC1
IC50 [16]: 12.9 µM (active)

COc1ccc(C2/C=C\CN(C(=O)c3ccccc3)[C@H](Cc3ccccc3)C(=O)N2Cc2ccc(F)cc2)cc1 (stereo partly specified)
AC50 [13]: 7.46 µM (active)

COc1ccc(-n2nnnc2CNC(=O)c2ccc3ccccc3c2)cc1
IC50 [16]: 14.5 µM (active)

CC1CC(C)(C)CC2(C1)NC(=O)N(CC(=O)N1CCN(Cc3ccc(C#N)cc3)CC1)C2=O (stereo unspecified)
AC50 [6]: 1.47 µM (active)
AC50 [7]: 2.54 µM (active)
AC50 [8]: 0.65 µM (active)

Cc1cc(C)cc(NS(=O)(=O)c2cnc(Cl)c(Cl)c2)c1
IC50 [16]: 16.6 µM (active)

COc1ccc2c(c1)CCCc1cn[nH]c1-2
GI50 [1]: > 100 µM (inactive)
GI50 [2]: > 100 µM (inactive)
GI50 [3]: > 100 µM (inactive)

O=C1C2=C(C3=NCCc4c[nH]c1c43)C1(C=C(Br)C(O)C(Br)=C1)CCN2 (stereo unspecified)
GI50 [1]: 1.81 µM (inactive)
GI50 [2]: 2.99 µM (inactive)
GI50 [3]: 1.25 µM (inactive)

CNC(=O)SCC(NC(=O)CCC(N)C(=O)O)C(=O)NCC(=O)O (stereo unspecified)
GI50 [1]: 26.4 µM (inactive)
GI50 [2]: > 59.2 µM (inactive)
GI50 [3]: 27.5 µM (inactive)

CC(C)=CCc1c(C)cc2cc3c(c(O)c2c1O)C(=O)C=C(O)C3(CC=C(C)C)C/C=C(\C)CO (stereo unspecified)
GI50 [1]: 20.1 µM (inactive)
GI50 [2]: 35.2 µM (inactive)
GI50 [3]: 23.5 µM (inactive)

Cc1c(N)nc([C@H](CC(N)=O)NC[C@H](N)C(N)=O)nc1C(=O)N[C@H](C(=O)N[C@H](C)[C@@H](O)[C@H](C)C(=O)N[C@H](C(=O)NCCc1nc(-c2nc(C(=O)NCCC[S+](C)C)cs2)cs1)[C@@H](C)O)C(OC1OC(CO)C(O)C(O)C1OC1OC(CO)C(O)C(OC(N)=O)C1O)c1c[nH]cn1 (stereo partly specified)
GI50 [1]: 3.49 µM (inactive)
GI50 [2]: 0.19 µM (active)
GI50 [3]: 2.11 µM (inactive)

FC(F)(F)C1=NC(=NNc2nnc(-c3ccccc3)c(-c3ccccc3)n2)N=C(C(F)(F)F)C1
GI50 [1]: 11.1 µM (inactive)
GI50 [2]: 10.1 µM (inactive)
GI50 [3]: 0.891 µM (active)

COc1cc(/C=C/C(=O)O)ccc1C(=O)O/C=C/c1ccccc1
GI50 [1]: 14.1 µM (inactive)
GI50 [2]: > 100 µM (inactive)
GI50 [3]: 25.6 µM (inactive)

COc1ccc(S(=O)(=O)Nc2ccc3c(c2)CC(=O)N([C@H](C)CO)C[C@H](C)[C@H](CN(C)S(=O)(=O)c2cccs2)O3)cc1
AC50 [21]: 0.509 µM (active)
AC50 [22]: 3.88 µM (active)

CC1[C@@]2(CCC(C)(C)O2)O[C@@H]2C=C3C4CCC5Cc6nc7c(nc6C[C@@]5(C)C4C[C@H](O)[C@@]3(C)[C@]12O)CC1CCC2C3=C[C@H]4O[C@@]5(O[C@@](C)(CO)C[C@@H]5O)C(C)[C@@]4(O)[C@]3(C)[C@@H](O)CC2[C@]1(C)C7 (stereo partly specified)
GI50 [1]: 0.00112 µM (active)
GI50 [2]: 0.000365 µM (active)
GI50 [3]: 0.000365 µM (active)

CC(=O)/C(=N\Nc1ccc(Cl)cc1Cl)Sc1nnc(-c2ccccc2)n1-c1ccccc1
EC50 [17]: 9.61 µM (active)
EC50 [18]: 8.46 µM (active)

OCC1CCC(n2cnc3c(O)ncnc32)O1 (stereo unspecified)
GI50 [1]: > 100 µM (inactive)
GI50 [2]: > 100 µM (inactive)
GI50 [3]: > 100 µM (inactive)

CC(C)Sc1sc(C(=O)O)c(-c2ccc(Cl)cc2)c1C#N
IC50 [16]: 13.5 µM (active)

— ChEMBL document CHEMBL1201862, “PubChem BioAssay data set” (2004)
